Key:
PD-1 = test: Tyrosine phosphorylation assay of PD-1, Jurkat/CHO-K1-hPD-L1 co-culture; type: cell-based, human; conditions: 50 μM, stimulated Jurkat with CHO-K1-hPD-L1 cells, 30 min, Western blotting
Protocol: Jurkat cells were stimulated with of PMA (25 ng/mL) and PHA (1 μg/mL) for 24 h. Stimulated Jurkat cells (2 × 10^6 cells/well) were co-cultured with CHO-K1-PD-L1 cells (1 × 10^7 cells/well). The co-cultures were treated with PBS, SMC18 (50 μM), or anti-human PD-1 (a17188b, Biolegend) and incubated at 37℃ for 30 min. After PBS washing, the cells were collected by centrifugation and lysed. Finally, cell lysates were collected for immunoprecipitation and Western blotting.
In brief, the protein samples were separated by SDS-PAGE using a 4% stacking gel and an 8 ~ 10% main gel and transferred to a polyvinylidene difluoride (PVDF) membrane. The membrane was blocked with 5% milk at room temperature for 1–2 h and then incubated with anti-SIRPα (dilution 1:1000, AB8120, Abcam), anti-PD-1 (dilution 1:200, ab52587, Abcam) or anti-Phosphotyrosine (dilution 1:1000, 05–321, Millipore) dissolved in primary antibody dilution buffer overnight at 4 °C. Then the membrane was washed and incubated with appropriate HRP-coupled goat anti-rabbit IgG (D110058, Sangon Biotech) and HRP-coupled goat anti-mouse IgG (D110087, Sangon Biotech) for 1–2 h at room temperature. Finally, the membranes were exposed using an enhanced chemiluminescence (ECL) detection kit (P1030, Applygen). Results were analyzed by ImageJ software (NIH, Bethesda, MD, United States).

MC38 cells = test: MTT assay, MC38 cells; type: cell-based, mouse; conditions: 100 µM; 24 h, 48 h, 72 h
Protocol: MC38 and B16-OVA cells were seeded into 96-well plates at a density of 3,000 cells per well, respectively and allowed to adhere overnight. SMC18 was added to the cells and incubated for 24 h, 48 h and 72 h, respectively. Cell viability was measured by adding MTT (3-(4, 5-dimethyl-2-thiazolyl)-2,5-diphenyl-2-H-tetrazolium bromide, 298–93-1, Sigma) solution and incubating for 4 h. The cells were then lysed by shaking with DMSO. The absorbance values at 490 nm were measured using a multi-mode microplate reader (Molecular Devices, SpectraMax iD5).
Fig S3. The Effect of SMC18 on Tumor Cell Proliferation in vitro. MC38 cells (3000 cells/well) and B16-OVA cells (3000 cells/well) were seeded in flat-bottomed 96-well plates and allowed to adhere overnight. Subsequently, the cells were starved for 8 hours in serum-free medium. SMC18 was diluted in complete culture medium and added to the wells, following which the cells were incubated for 24 h, 48 h, and 72 h. After the designated incubation periods, 20 μL of MTT solution was added to each well. Four hours later, the supernatant was aspirated, and 150 μL of DMSO was added to each well to dissolve the MTT formazan product. The plates were then shaken for 10 minutes, and absorbance was measured at 490 nm using a microplate reader.

MC38 tumor-bearing mice = test: Ex vivo flow cytometry of immune cells from MC38 tumor-bearing mice; type: in vivo, mouse; conditions: SMC18 treatment vs NS
Protocol: At the end of treatment, the tumor-bearing mice were euthanized, and the tumor tissues were removed, minced and enzymatically digested with DNAase I (DN25, Sigma) and collagenase IV (17,104–019, Invitrogen) at 37 °C for 40 min. The digested tumor suspensions were filtered by nylon filter. Immune cell infiltration in the tumor tissue was analyzed by flow cytometry. For the detection of CD8^+ T cells at the tumor site, single-cell suspensions were stained with anti-mouse CD45-FITC (30-F11, eBioscience), anti-mouse CD3-PerCP-eFluor710 (17A2, eBioscience), anti-mouse CD8α-PE (53–6.7, eBioscience) or isotype control. To detect macrophage infiltration at tumor sites, single cell suspensions were stained with anti-mouse CD45-FITC (30-F11, eBioscience), anti-mouse CD11b-eFluor450 (M1/70, eBioscience), anti-mouse F4/80-PerCP-Cyanine5.5 (BM8, eBioscience), anti-mouse CD11c-APC (M418, eBioscience), anti-mouse CD206-PE (MR6F3, eBioscience) or isotype control.
To assess cytokine secretion from tumor sites and immune organs, spleens, draining lymph nodes and tumors from mice were dissected and ground into single cell suspensions, followed by filtration and incubation with […] transport inhibitors, PMA (20 ng/mL, 16561–29-8, Sigma) and ionomycin (1 µM, I0634, Sigma) for 4 h in a 37 °C incubator. The single cell suspensions of draining lymph nodes and spleens were stained with anti-mouse CD3-PerCP-eFluor710 (17A2, eBioscience), anti-mouse CD8α-PE (53–6.7, eBioscience), anti-mouse IFN-γ-APC (XMG1.2, eBioscience) or isotype control. Tumor cells were stained with anti-mouse CD45-FITC (30-F11, eBioscience), anti-mouse CD3-PerCP-eFluor710 (17A2, eBioscience), anti-mouse CD8α-PE (53–6.7, eBioscience), anti-mouse IFN-γ-APC (XMG1.2, eBioscience) or isotype control. Finally, the samples were detected by flow cytometry.

human PD-1/PD-L1 = biological target: T1, human PD-1/PD-L1 (Homo sapiens, UniProt Q9NZQ7); test: Cell-based blocking assay, human PD-1/PD-L1; conditions: CHO-K1-hPD-1 cells, PD-L1-Fc, flow cytometry; read-out: IC50 for blocking human PD-1/PD-L1 interaction
T1 construct: purchased Sino Biological 10,084-H02H; host or cells: CHO-K1-hPD-1 cells carry the partner (lentiviral transfection)
T1 sequence (Q9NZQ7 19-239 limits assumed): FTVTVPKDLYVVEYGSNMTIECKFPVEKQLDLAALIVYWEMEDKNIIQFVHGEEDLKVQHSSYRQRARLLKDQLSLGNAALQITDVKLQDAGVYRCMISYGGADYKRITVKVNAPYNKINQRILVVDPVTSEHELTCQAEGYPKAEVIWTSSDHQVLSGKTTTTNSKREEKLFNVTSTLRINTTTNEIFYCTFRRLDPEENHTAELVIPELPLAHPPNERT
Protocol: The CHO-K1 cell line with stable expression of CD47 and PD-1 was constructed previously by our group. SMC18 was serially diluted using PBS 7.2 (containing 1% DMSO) and incubated with 100 ng of SIRPα-Fc protein (human: SIA-H5251, mouse: SIA-M5258, ACRO Biosystems) and 50 ng of PD-L1-Fc protein (human: 10,084-H02H, mouse: 50,010-M02H, Sino Biological) on ice for 30 min. The mixture was then added to the corresponding CHO-K1-CD47 or CHO-K1-PD-1 cells and further incubated on ice for 30 min. Afterward, PE-conjugated anti-human IgG (Fc) antibody (A18272, eBioscience) was added. The mean fluorescence intensity (MFI) of the cells was detected using flow cytometry (BD FACSCalibur) and the blocking efficiency was calculated.

## Cc1cc(C)cc(NS(=O)(=O)c2ccc3[nH]cc(C(=O)NCCc4ccccc4)c(=O)c3c2)c1 [SMC18]
PD-1
  levels of phosphorylated PD-1: decreased
MC38 cells
  toxicity to MC38 cells (MTT): non-toxic
MC38 tumor-bearing mice; MC38 tumor
  amount of CD8+ T cell secreting IFN-γ in the tumor tissue: significantly increased
  infiltration of CD8+ T cells in the tumor tissue: significantly increased
MC38 tumor-bearing mice
  amount of CD8+ T secreting IFN-γ in the draining lymph nodes: increased
  amount of CD8+ T secreting IFN-γ in the spleen: increased
  proportion of M1-type macrophages in tumor: increased
Human PD-1/PD-L1
  IC50: 19.7 ± 7 µM
